Where “and” joins values, the source holds several entries; their conditions need not be identical. Equal values may be shown once. Inconclusive results and toxic doses are left out.
System: P388 leukemia ip, CD2F1 mice, survival T/C
Assay: NCI In Vivo Anticancer Drug Screen. Data for tumor model P388 Leukemia (intraperitoneal) in CD2F1 (CDF1) mice
Conditions: endpoint: median survival time, higher = longer survival
Outline: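 Mice carrying the transplanted tumor received test compound or vehicle. Survival was recorded in each group, and the value is the treated-group measurement divided by that of the vehicle-treated control group.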

[1] = dose: 50.0 mg/kg/injection, schedule: Q01DX005 (ip), vehicle: Klucel (hydroxypropylcellulose) (HPC)
[2] = dose: 100.0 mg/kg/injection, schedule: Q01DX005 (ip), vehicle: Klucel (hydroxypropylcellulose) (HPC)
[3] = dose: 200.0 mg/kg/injection, schedule: Q01DX005 (ip), vehicle: Klucel (hydroxypropylcellulose) (HPC)
[4] = dose: 60.0 mg/kg/injection, schedule: Q01DX005 (ip), vehicle: saline with Tween-80
[5] = dose: 120.0 mg/kg/injection, schedule: Q01DX005 (ip), vehicle: saline with Tween-80
[6] = dose: 240.0 mg/kg/injection, schedule: Q01DX005 (ip), vehicle: saline with Tween-80

Cc1ccc(/C=N/N)s1
T/C (dose: 50.0 mg/kg/injection, schedule: Q04DX003 (ip), vehicle: other): 90 % of control
T/C (dose: 100.0 mg/kg/injection, schedule: Q04DX003 (ip), vehicle: other): 100 % of control
T/C (dose: 200.0 mg/kg/injection, schedule: Q04DX003 (ip), vehicle: other): 100 % of control

CCN(CC)C1CS(=O)(=O)OC2=C1CSCC2 (configuration not stated)
T/C (dose: 100.0 mg/kg/injection, schedule: Q04DX003 (ip), vehicle: saline with Tween-80): 102 % of control
T/C (dose: 200.0 mg/kg/injection, schedule: Q04DX003 (ip), vehicle: saline with Tween-80): 100 % of control
T/C (dose: 400.0 mg/kg/injection, schedule: Q04DX003 (ip), vehicle: saline with Tween-80): 95 % of control

CC(=O)/C=C1\N(C)c2ccccc2C1(C)C
T/C [1]: 104 % of control
T/C [2]: 107 % of control
T/C [3]: 100 % of control

O=C(O)CN(CCN(CC(=O)O)CC(=O)O)CC(=O)O.[Cl][Pd][Cl]
T/C (dose: 15.0 mg/kg/injection, schedule: Q01DX005 (ip), vehicle: saline): 97 % of control
T/C (dose: 30.0 mg/kg/injection, schedule: Q01DX005 (ip), vehicle: saline): 93 % of control
T/C (dose: 60.0 mg/kg/injection, schedule: Q01DX005 (ip), vehicle: saline): 91 % of control and 95 % of control

COC(=O)/C(=C1/OC(=O)C(c2ccc(Cl)cc2)=C1O)c1ccc(OC)cc1
T/C [1]: 102 % of control
T/C [2]: 94 % of control

S=c1nc[nH]c2nc(-c3ccccc3)[nH]c12
T/C (dose: 12.5 mg/kg/injection, schedule: Q01DX005 (ip), vehicle: other): 101 % of control
T/C (dose: 25.0 mg/kg/injection, schedule: Q01DX005 (ip), vehicle: other): 100 % of control
T/C (dose: 50.0 mg/kg/injection, schedule: Q01DX005 (ip), vehicle: other): 101 % of control
T/C (dose: 100.0 mg/kg/injection, schedule: Q01DX005 (ip), vehicle: other): 92 % of control
T/C (dose: 200.0 mg/kg/injection, schedule: Q01DX005 (ip), vehicle: other): 92 % of control

CC(=O)N1C(C(=O)O)Cc2c([nH]c3ccccc23)C1(C)C (configuration not stated)
T/C (dose: 100.0 mg/kg/injection, schedule: Q01DX001 (ip), vehicle: suspension in saline): 108 % of control
T/C (dose: 200.0 mg/kg/injection, schedule: Q01DX001 (ip), vehicle: suspension in saline): 95 % of control
T/C (dose: 400.0 mg/kg/injection, schedule: Q01DX001 (ip), vehicle: suspension in saline): 107 % of control

COC12CC(=O)C(C(C)=O)=C(O)C1(C)c1c(OC(C)=O)c(C)c(O)c(C(C)=O)c1O2 (configuration not stated)
T/C (dose: 25.0 mg/kg/injection, schedule: Q01DX009 (ip), vehicle: gum acacia): 106 % of control
T/C (dose: 50.0 mg/kg/injection, schedule: Q01DX009 (ip), vehicle: gum acacia): 99 % of control and 104 % of control and 114 % of control
T/C (dose: 100.0 mg/kg/injection, schedule: Q01DX009 (ip), vehicle: gum acacia): 124 % of control

CCOc1cc2c(cc1C(C)c1ccc(OC)c(C)c1)OCO2 (configuration not stated)
T/C (dose: 12.5 mg/kg/injection, schedule: Q01DX005 (ip), vehicle: Klucel (hydroxypropylcellulose) (HPC)): 92 % of control
T/C (dose: 25.0 mg/kg/injection, schedule: Q01DX005 (ip), vehicle: Klucel (hydroxypropylcellulose) (HPC)): 91 % of control
T/C [1]: 102 % of control and 111 % of control
T/C [2]: 101 % of control and 112 % of control
T/C [3]: 101 % of control and 114 % of control

CN(C)CCNc1ccccc1[N+](=O)[O-]
T/C (dose: 12.5 mg/kg/injection, schedule: Q01DX001 (ip), vehicle: saline): 100 % of control
T/C (dose: 25.0 mg/kg/injection, schedule: Q01DX001 (ip), vehicle: saline): 100 % of control
T/C (dose: 50.0 mg/kg/injection, schedule: Q01DX001 (ip), vehicle: saline): 100 % of control

COc1cc(C(=O)N/N=C/C(=O)O)cc(OC)c1OC
T/C [1]: 101 % of control
T/C [2]: 104 % of control
T/C [3]: 101 % of control

CCOc1cc2cc(CCC#N)c(C)cc2cn1
T/C (dose: 12.5 mg/kg/injection, schedule: Q01DX009 (ip), vehicle: distilled water + Tween-80): 93 % of control
T/C (dose: 25.0 mg/kg/injection, schedule: Q01DX009 (ip), vehicle: distilled water + Tween-80): 87 % of control
T/C (dose: 50.0 mg/kg/injection, schedule: Q01DX009 (ip), vehicle: distilled water + Tween-80): 87 % of control

CSC(=S)N/N=C(\C)c1cccc(C)n1
T/C (dose: 7.5 mg/kg/injection, schedule: Q01DX005 (ip), vehicle: saline with Tween-80): 100 % of control
T/C (dose: 15.0 mg/kg/injection, schedule: Q01DX005 (ip), vehicle: saline with Tween-80): 102 % of control
T/C (dose: 30.0 mg/kg/injection, schedule: Q01DX005 (ip), vehicle: saline with Tween-80): 105 % of control
T/C [4]: 100 % of control
T/C [5]: 87 % of control
T/C [6]: 113 % of control

CC1(C)N[P+]2(Nc3ccccc3O2)OC1=O (configuration not stated)
T/C (dose: 100.0 mg/kg/injection, schedule: Q04DX002 (ip), vehicle: Klucel (hydroxypropylcellulose) (HPC)): 97 % of control
T/C (dose: 200.0 mg/kg/injection, schedule: Q04DX002 (ip), vehicle: Klucel (hydroxypropylcellulose) (HPC)): 93 % of control
T/C (dose: 400.0 mg/kg/injection, schedule: Q04DX002 (ip), vehicle: Klucel (hydroxypropylcellulose) (HPC)): 87 % of control

CC(=O)Nc1nccs1.CC(=O)Nc1nccs1.[Cl][Pt][Cl]
T/C (dose: 100.0 mg/kg/injection, schedule: Q04DX002 (ip), vehicle: saline with Tween-80): 93 % of control
T/C (dose: 200.0 mg/kg/injection, schedule: Q04DX002 (ip), vehicle: saline with Tween-80): 91 % of control

Cc1cc(NCCCN(C)C)c2c(ccc3c(NCCCN(C)C)cc(C)nc32)n1
T/C (dose: 6.0 mg/kg/injection, schedule: Q01DX009 (ip), vehicle: suspension in saline): 98 % of control
T/C (dose: 12.0 mg/kg/injection, schedule: Q01DX009 (ip), vehicle: suspension in saline): 104 % of control
T/C (dose: 24.0 mg/kg/injection, schedule: Q01DX009 (ip), vehicle: saline with Tween-80): 96 % of control
T/C (dose: 24.0 mg/kg/injection, schedule: Q01DX009 (ip), vehicle: suspension in saline): 115 % of control

C=Cc1c(C)c(O)cc2c1-c1ccc(O)c(C)c1CC2
T/C (dose: 25.0 mg/kg/injection, schedule: Q01DX009 (ip), vehicle: Klucel (hydroxypropylcellulose) (HPC)): 104 % of control
T/C (dose: 50.0 mg/kg/injection, schedule: Q01DX009 (ip), vehicle: Klucel (hydroxypropylcellulose) (HPC)): 100 % of control
T/C (dose: 100.0 mg/kg/injection, schedule: Q01DX009 (ip), vehicle: Klucel (hydroxypropylcellulose) (HPC)): 92 % of control
T/C (dose: 200.0 mg/kg/injection, schedule: Q01DX009 (ip), vehicle: Klucel (hydroxypropylcellulose) (HPC)): 93 % of control

Cc1c(Cc2ccccc2)c(N2CCOCC2)n2c(nc3ccccc32)c1C#N
T/C [4]: 91 % of control
T/C [5]: 88 % of control
T/C [6]: 91 % of control

COC1OC(CNC(=O)N(CCCl)N=O)C(O)C(O)C1O (configuration not stated)
T/C (dose: 1.56 mg/kg/injection, schedule: Q01DX009 (ip), vehicle: saline): 182 % of control
T/C (dose: 3.12 mg/kg/injection, schedule: Q01DX009 (ip), vehicle: saline): 204 % of control
T/C (dose: 3.12 mg/kg/injection, schedule: Q04DX002 (ip), vehicle: saline): 157 % of control
T/C (dose: 6.25 mg/kg/injection, schedule: Q01DX009 (ip), vehicle: saline): 248 % of control
T/C (dose: 6.25 mg/kg/injection, schedule: Q04DX002 (ip), vehicle: saline): 212 % of control
T/C (dose: 10.0 mg/kg/injection, schedule: Q04DX002 (ip), vehicle: saline): 278 % of control
T/C (dose: 12.5 mg/kg/injection, schedule: Q01DX009 (ip), vehicle: saline): 263 % of control
T/C (dose: 12.5 mg/kg/injection, schedule: Q04DX002 (ip), vehicle: saline): 277 % of control
T/C (dose: 20.0 mg/kg/injection, schedule: Q04DX002 (ip), vehicle: saline): 288 % of control
T/C (dose: 25.0 mg/kg/injection, schedule: Q04DX002 (ip), vehicle: saline): 222 % of control
T/C (dose: 40.0 mg/kg/injection, schedule: Q04DX002 (ip), vehicle: saline): 86 % of control

COc1cc2c(c(OC)c1OC)-c1ccc(SC)c(=O)cc1C(NC(=O)c1ccccc1)CC2 (configuration not stated)
T/C (dose: 2.5 mg/kg/injection, schedule: Q01DX009 (ip), vehicle: Klucel (hydroxypropylcellulose) (HPC)): 155 % of control
T/C (dose: 5.0 mg/kg/injection, schedule: Q01DX009 (ip), vehicle: Klucel (hydroxypropylcellulose) (HPC)): 117 % of control
T/C (dose: 625.0 micrograms/kg/injection, schedule: Q01DX009 (ip), vehicle: Klucel (hydroxypropylcellulose) (HPC)): 112 % of control
T/C (dose: 1250.0 micrograms/kg/injection, schedule: Q01DX009 (ip), vehicle: Klucel (hydroxypropylcellulose) (HPC)): 120 % of control
T/C (dose: 10000.0 micrograms/kg/injection, schedule: Q01DX009 (ip), vehicle: Klucel (hydroxypropylcellulose) (HPC)): 90 % of control

— PubChem BioAssay AID330 (DTP/NCI, 2004)
